The results in this text go back to the supplement of paper PMC8967900.

Molecules are shown by their SMILES.

Common to all, as to experiment: selective drug sensitivity score (sDSS, relative to normal bone marrow) (sDSS (score)); higher = more potent and effective on the cell line relative to normal bone marrow cells
Common to all, as to details: 72 h

Test [1] deals with KASUMI-10.
In test [2] the test system is NALM-16.
The subject of test [3] is KASUMI-2.
Test [4] deals with RPMI-8402.
The test system of test [5] is MHH-CALL-3.
The test system of test [6] is NALL-1.
Test [7] concerns JURKAT.
The test system of test [8] is COG-LL-394h.
Test [9] concerns 697.
Test [10] concerns CCRF-HSB2.
Test [11] concerns PEER.
Test [12] concerns SEM cells.
The subject of test [13] is KASUMI-9.
For test [14], the system named is SUP-B15.
Test [15] concerns COG-LL-402h.
Test [16] has as its system 380.
Test [17] concerns LC4-1.
Test [18] has as its system ALL-PO.
Test [19] concerns P12-ICHIKAWA
Test [20] deals with DND-41.
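Note: ALL cell lines in 384-well plates, five doses spanning 10,000-fold, each plate scaled between vehicle and 100 µmol/L benzalkonium chloride controls, sDSS an adapted area-under-curve metric.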

Regarding `Clc1ccccc1C(c1ccccc1)(c1ccccc1)n1cccn1` [TRAM-34] (top concentration 1000 nM), the “selective drug sensitivity score” value in test [1], in [2], in test [3], in test [4], in test [5] and in test [6] was -0.08 in each case. The “selective drug sensitivity score” value in [7], in test [8], in [9], in test [10], in test [11] and in test [12] was -0.08 in each case. Further, the “selective drug sensitivity score” value in test [13] is 2.52; in test [14], -0.08; in [15], -0.08; in test [16] it was -0.08; in test [17], -0.08; in test [18], -0.08. Also, the “selective drug sensitivity score” value in test [19] and in test [20] was -0.08 each time.
For the compound `CNC(=O)[C@@H](NC(=O)[C@H](CC(C)C)[C@H](O)C(=O)NO)C(C)(C)C` [Marimastat] (top concentration 10000 nM), the “selective drug sensitivity score” value was 0.22 in [1]; 4.22 in [2]; -0.98 in test [3]; -0.68 in [4]; -1.28 in [5]; 4.12 in [6]. Moreover, the “selective drug sensitivity score” value in test [7] is 2.42; in test [8], -0.88; in test [9] it was -0.68; in test [10] it was -0.78; in [11], 1.42; in test [12] it was -1.08. Also, the “selective drug sensitivity score” value in test [13] was -1.28; in test [14], 4.52; in test [15], -0.38; in test [16] it was -1.28; in [17], -1.28; in test [18], 5.22. For the same compound, the results for the “selective drug sensitivity score” value in test [19] and in test [20] were 1.22 and 0.12, respectively.
In the case of `O=S(=O)(c1cccc2c(O)nccc12)N1CCCNCC1` [Hydroxyfasudil] (top concentration 19000 nM), the “selective drug sensitivity score” value in [1] is -0.82; in test [2] it was -0.92; in test [3], 0.08; in test [4] it was -0.72; in test [5], 3.88; in [6], 2.58. The “selective drug sensitivity score” value in [7] is -0.92; in [8], -0.92; in test [9], 1.18; in test [10], 0.98; in test [11], 0.08; in [12], 0.08. Further, the “selective drug sensitivity score” value in test [13] was -0.12; in test [14], -0.52; in test [15] it was -0.92; in test [16] it was 3.98; in test [17], -0.92; in test [18] it was -0.92. For the same compound, the “selective drug sensitivity score” value in test [19] and in [20] was -0.92 throughout.
Regarding `Cc1ccc(-c2cc(C(F)(F)F)nn2-c2ccc(S(N)(=O)=O)cc2)cc1` [Celecoxib] (top concentration 10000 nM), the “selective drug sensitivity score” value is -0.06 in test [1]; -0.06 in [2]; 7.54 in test [3]; 0.54 in test [4]; 5.24 in test [5]; -0.06 in test [6]. In addition, the “selective drug sensitivity score” value in test [7] is 0.14; in test [8] it was -0.06; in [9], -0.06; in test [10], -0.06; in test [11], 0.94; in [12] it was -0.06. In addition, the “selective drug sensitivity score” value in test [13] was -0.06; in [14], 2.44; in test [15], -0.06; in [16] it was 7.74; in test [17], 1.24; in test [18], 2.84. Moreover, the results for the “selective drug sensitivity score” value in test [19] and in test [20] were 0.24 and 1.24, respectively.
